Assay results: article PMC8398714, “Synthesis and Evaluation of Biological Activities of Bis(spiropyrazolone)cyclopropanes: A Potential Application against Leishmaniasis” (Molecules, 2021)

Assays:
RKO = assay: MTS cell viability assay on RKO cells; format: cell-based; details: Homo sapiens, 100 µM, 48 h, Dox 1 µM, mean ± SEM, NA = no activity, read-out: Percentage (%) of inhibition, RKO
Procedure: (§1) Five tumor human cancer cell lines—cerebral astrocytoma (D-384), grade IV prostatic adenocarcinoma (PC-3), mammary adenocarcinoma (MCF-7), human colon carcinoma (RKO) and lung carcinoma (A-549)—along with one immortalized hamster cell line (CHO K-1) were used. The cells PC-3, MCF-7 and RKO were cultured in RPMI-1640, D-384 on DMEM and CHO K-1 on HAM F-12 medium supplemented with 10% fetal bovine serum (FBS, Invitrogen, Karlsruhe, Germany), 1% antibiotic-antimitotic solution (100 units/mL penicillin G, 100 µg/mL streptomycin, and 0.25 µg/mL amphotericin B, Gibco, Grand Island, NY, USA), and 1% L-glutamine (2 mM, Gibco). The cells were incubated at 37 °C in a 5% CO2 atmosphere. The viable cells were counted using the trypan blue exclusion method in a hemocytometer.
(§2) The MTS (5-[3-(carboxymethoxy)phenyl]-3-(4,5-dimethyl-2-thiazolyl)-2-(4-sulfo- phenyl)-2H-tetrazolium inner salt) cell viability assay was used to assess the inhibitory effects of the extracts on the survival of human cancer cell lines. A total of 3–5 × 10^3 cells/well were seeded into 96-well plates and were allowed to adhere for 24 h. […] Each concentration/assay was performed three times. Dimethyl sulfoxide (DMSO) was used as a negative control at a final concentration of 0.1% v/v, and 1 µM Doxorubicin was used as a positive control. The cells were incubated with the treatments for 48 h, after which 20 µL MTS (5 mg/mL, Aqueous One Solution Reagent, Gibco) was added and further incubated for 4 h at 37 °C. The absorbance was measured at 570 nm. The data obtained with cells treated with DMSO were defined to represent 100% viability.

A-549 = assay: MTS cell viability assay on A-549 cells; format: cell-based; details: Homo sapiens, A549; 100 µM, 48 h; Dox 1 µM; mean ± SEM; NA = no activity; read-out: Percentage (%) of inhibition, A-549
Procedure: as §1, §2

CHO-K1 = assay: MTS cell viability assay on immortalized CHO-K1 cells; format: cell-based, hamster; details: 48 h, Dox 1 µM, mean ± SEM, NA = no activity, read-out: Percentage (%) of inhibition, CHO-K1
Procedure: as §1, §2

[1] = tested on: Leishmania mexicana cells; assay: Comet assay of Leishmania mexicana cells; format: cell-based; design: Comet tail length, mean (vary) / Comet tail length, median (Q50): unit not given here; details: L. mexicana, 24 h at MIC
Procedure: We quantified DNA breaks by a comet assay to determine if these compounds are genotoxic. Here, L. mexicana cells were exposed for 24 h to MIC concentrations previously determined (see Materials and Methods Section) for each compound. Figure 1 represents the measurements obtained for tail length. All compounds generated DNA breaks expect 4s. […] Samples with DMSO and MMS (0.011%) were included as controls. Some representative pictures are shown at Figure S4. The effect of 4p could not be determined because the cells appear to be very damaged. The data was subjected via a Kruskal–Wallis one-way ANOVA (Statistical Analyses S2). […] These observations support a mechanism of action through the generation of DNA damage.
For leishmania, a method previously described for yeast was adapted. Briefly, after incubating the cells in presence of the compounds for 24 h, cells were collected and washed with buffer S (1 M sorbitol, 25 mM KH2PO4 in ultrapure water and adjust to pH 6.5 with NaOH). The pellet was resuspended in 400 µL of 1.5% LMA and 40 µL was spread (second layer) onto previously agarose-coated slides (first layer).
Slides were immersed in cold lysis buffer (30 mM NaOH, 1 M NaCl, 0.05 % (w/v) lauroylsarcosine, 50 mM EDTA, and 10 mM Tris–HCl, pH 10) for 25 min and then in cold electrophoresis alkaline buffer (30 mM NaOH, 10 mM EDTA, and 10 mM Tris–HCl, pH 10). They were then subjected to electrophoresis at 26V and 300 mA. Slides were immersed in neutralization buffer (10 mM Tris–HCl, pH 7.4; prepared in advance and stored at 4 °C) for 10 min at room temperature. The cells were then treated with proteinase K (20 min, 37 °C in humid chamber), followed by a new neutralization step. To dehydrate the slides, they were immersed in EtOH 90% and EtOH absolute for 10 min each. Finally, the slides were stained with Sybr Gold 1X.
The DNA migration was analyzed using a LEICA microscope with fluorescence (40×) by scoring 100 cells per slide in duplicate. The tail moment parameter was then analyzed by the Comet Score software.

CHO-K1 cells = format: cell-based, hamster
Procedure: Cells were mixed with 150 μL low-melting-point agarose 1% (LMP, Promega, Madison, WI, USA) and added to microscope slides previously prepared with normal-melting-point agarose 1% (NMP, Invitrogen, Carlsbad, CA, USA). A third LMP agarose layer (150 µL) was added. The slides were immersed in a cooled lysing solution (pH 10) with 10% DMSO, 1% Triton X-100 (Sigma Aldrich, Saint Louis, MO, USA), 2.5 M NaCl (Loba Chemie, Mumbai, India), 100 mM EDTA and 10 mM Tris (Invitrogen, Carlsbad, CA, USA) for 12 h at 4 °C. All steps after lysis were performed under darkness or yellow light to prevent additional DNA damage. The slides were immersed for 20 min in an electrophoresis buffer solution (pH 13) with NaOH 300 mM (Fisher Scientific, Waltham, MA, USA) and EDTA 1 mM (Invitrogen, Carlsbad, CA, USA) to allow for DNA unwinding. Electrophoresis was later performed at 25 V and 300 mA for 20 min. Slides were then sprayed with a neutralization buffer (pH 7.5) 0.4 M Tris (Sigma Aldrich, Saint Louis, MO, USA). Ethidium bromide (60 µL) was added to each slide, and a cover glass was placed on the gel. The DNA migration was analyzed using a ZEISS-Axioskop 2 plus microscope with fluorescence (40×) by scoring 100 cells per slide in duplicate. After that, the tail moment parameter was analyzed by a Comet Assay IV software (Perceptive Instruments Ltd., Bury St Edmunds, Suffolk, UK).

[2] = MMS 0.011%, Kruskal-Wallis $means

CC1=NN(c2ccccc2)C(=O)[C@@]12C(c1cccc(F)c1)[C@@]21C(=O)N(c2ccccc2)N=C1C (relative stereo) [4t, (5R*,6R*)-11-(3-Fluorophenyl)-4,10-dimethyl-2,8-diphenyl-2,3,8,9-tetraazadispiro[4.0.4.1]undeca-3,9-diene-1,7-dione]
inhibition at 100 µM (RKO): 47.6 ± 0.95% | inhibition at 100 µM (A-549): 3.43 ± 2.42% | inhibition at 100 µM (CHO-K1): 5.08 ± 2.84% | Genotoxic effect (DNA breaks) in comet assay ([1]; in words): biggest genotoxic effects | Comet tail length, mean (vary) [1, 2]: 124410000 | Comet tail length, median (Q50) [1, 2]: 116000000 | Genotoxic effect in comet assay versus DMSO control (CHO-K1 cells): did not show differences with respect to the control of DMSO
